Tests used:
Assay type in all cases: cell-based
[1] = test system: invasive cell lines (5637, EJ); test: Cell viability of bladder cancer cell lines treated with doxorubicin; details: invasive cell lines (5637, EJ) compared with non-muscle invasive cell lines (UC5, UC9); doxorubicin 0 to 50 μM for 12 hours or 24 hours; FIG. 9A
[2] = test system: FOXM1 and CCNB1 genes; test: Expression of FOXM1 and CCNB1 genes in bladder cancer cell lines treated with doxorubicin; details: invasive cell lines (5637, EJ); doxorubicin 0 to 50 μM for 12 hours or 24 hours; FIG. 9B
Description: (§1) Further, the inventors of the present disclosure studied expression of FOXM1, CCNB1 genes, and FANCB, FANCC, and FANCD2 genes relevant to Fanconi anemia pathways after non-muscle invasive cell lines (UC5, UC9) and invasive cell lines (5637, EJ) were treated with doxorubicin used as an anticancer drug for bladder cancer at a concentration of 0 to 50 μM for 12 hours or 24 hours.

[3] = test system: FANCB, FANCC, and FANCD2 genes; test: Expression of DNA repair genes in bladder cancer cell lines treated with doxorubicin; details: non-muscle invasive cell lines (UC5, UC9) and invasive cell lines (5637, EJ); doxorubicin 0 to 50 μM for 12 hours or 24 hours; FIG. 9C
Description: as §1
Furthermore, in the non-muscle invasive cell lines (UC5, UC9) and invasive cell lines (5637, EJ) treated as described above, expression of the genes relevant to DNA repair was checked.

COc1cccc2c1C(=O)c1c(O)c3c(c(O)c1C2=O)C[C@@](O)(C(=O)CO)C[C@@H]3O[C@H]1C[C@H](N)[C@H](O)[C@H](C)O1 [doxorubicin]
high: cell viability [1] | expression of FOXM1 and CCNB1 genes [2] | expression of the FANCB, FANCC, and FANCD2 genes relevant to Fanconi anemia pathways [3]
